Results on eleven substances are retold here after US5428016A, “Antimicrobial peptide and antimicrobial agent” (Morinaga Milk Industry Co., Ltd., priority 1991, dated 1995).

Where no end group is shown, it is not given here.

Type in all cases: cell-based
The subject of experiment [1] is Listeria monocytogenes IDF 1b. As to conditions: 17 h. The method, then:
(§1) The antimicrobial peptides (samples Nos. 1 to 15) were prepared using the same methods as in Examples 1 to 15, and antimicrobial peptide derivatives (samples Nos. 16 to 18) were prepared using the same methods as in Examples 16 to 18, and were sterilized by filtration using a 0.45 μm Millex filter prior to use.
(§2) Various microbial strains shown in Table 4 in the logarithmic phase of growth were inoculated in a peptone medium which consisted of 1% Bactopeptone (manufactured by Difco Laboratory Co.) at a cell concentration of 10^6 /ml, and 160 μl thereof were incubated for 17 hours at 37° C. (or 30° C.) using a 96-hole microtiter plate (manufactured by Falcon Co.). Each sample was added to each medium at a ratio of 0, 1.5, 3, 6, 12, 25, 50, 100, 125 or 250 μM. The growth of the various microorganisms in the various samples at various concentrations was studied by measuring the light absorption at 660 nm.
(§3) The microorganisms used in this experiment are available from The Medical School Laboratories of Tokyo University (IID), Japanese Physicochemical Laboratories (JCM), Japanese International Dairy Federation (IDF), and the storage at the laboratory of the applicant (MMI).

Experiment [2] deals with Pseudomonas aeruginosa MMI 603. As to conditions: MMI 603, 17 h. The method, then: as §1, §2, §3
Experiment [3] concerns Staphylococcus aureus JCM 2151. As to conditions: JCM 2151, 17 h. The procedure: as §1, §2, §3
Experiment [4] relates to Klebsiella pneumoniae JCM 1662 T. As to conditions: JCM 1662, 17 h. The method, then:
as §1, §2, §3

Experiment [5] has as its system Escherichia coli IID 861. The procedure:
as §1, §2, §3

The subject of experiment [6] is Escherichia coli MMI 0111. As to the kind of experiment: Antimicrobial spectrum, minimum inhibitory concentration. The method, then:
as §1, §2, §3

Turning to “KSRRRQWRMKK [Sample No. 12, Lys-Ser-Arg-Arg-Arg-Gln-Trp-Arg-Met-Lys-Lys]”, the “minimum inhibitory concentration (MIC)” value in experiment [1] was “up to 12 μM”; in experiment [2] it was “up to 50 μM”; in experiment [3], “up to 12 μM”; in experiment [4] it was “up to 50 μM”.
Regarding “RRWQWR [Sample No. 6, Arg-Arg-Trp-Gln-Trp-Arg]”, the “minimum inhibitory concentration (MIC)” value in experiment [1] and in experiment [3] was “up to 100 μM” throughout.
Regarding “KTVSWQTYMKK [Sample No. 13, Lys-Thr-Val-Ser-Trp-Gln-Thr-Tyr-Met-Lys-Lys]”, the “minimum inhibitory concentration (MIC)” value is given as “up to 12 μM” in experiment [1], “up to 50 μM” in experiment [2], “up to 12 μM” in experiment [3] and “up to 50 μM” in experiment [4].
With “KTVSWR [Sample No. 8, Lys-Thr-Val-Ser-Trp-Arg]”, the “minimum inhibitory concentration (MIC)” value in experiment [1] and in experiment [3] was “up to 100 μM” each time.
As to “RRRQWR [Sample No. 7, Arg-Arg-Arg-Gln-Trp-Arg]”, the “minimum inhibitory concentration (MIC)” value in experiment [1] and in experiment [3] was “up to 100 μM” in each case.
In the case of “KTLRWQNEMRK [Sample No. 15, Lys-Thr-Leu-Arg-Trp-Gln-Asn-Glu-Met-Arg-Lys]”, the “minimum inhibitory concentration (MIC)” value in experiment [1] is given as “up to 12 μM”; in experiment [2], “up to 50 μM”; in experiment [3], “up to 12 μM”; in experiment [4], “up to 50 μM”.
Turning to “RWQEMK [Sample No. 10, Arg-Trp-Gln-Glu-Met-Lys]”, the “minimum inhibitory concentration (MIC)” value in experiment [1] and in experiment [3] was “up to 100 μM” throughout.
In the case of “KRNMRK [Sample No. 9, Lys-Arg-Asn-Met-Arg-Lys]”, the “minimum inhibitory concentration (MIC)” value in experiment [1] and in experiment [3] was “up to 100 μM” throughout.
As to “KTRRWQWRMKK [Sample No. 11, Lys-Thr-Arg-Arg-Trp-Gln-Trp-Arg-Met-Lys-Lys]”, the “minimum inhibitory concentration (MIC)” value in experiment [1] is “up to 12 μM”; in experiment [2] it was “up to 50 μM”; in experiment [3] it was “up to 12 μM”; in experiment [4] it was “up to 50 μM”.
In the case of “KTRRWQWRMKK-NH2 [Sample No. 18, Lys-Thr-Arg-Arg-Trp-Gln-Trp-Arg-Met-Lys-Lys-NH2]”, the “minimum inhibitory concentration (MIC)” value in experiment [5] came to 3 µM; in experiment [6], 6 µM.
In the case of “KTFQWQRNMRK [Sample No. 14, Lys-Thr-Phe-Gln-Trp-Gln-Arg-Asn-Met-Arg-Lys]”, the “minimum inhibitory concentration (MIC)” value is “up to 12 μM” in experiment [1], “up to 50 μM” in experiment [2], “up to 12 μM” in experiment [3] and “up to 50 μM” in experiment [4].
